Read-outs that look alike come from different tables or passages of the source.
How the values were obtained:
[1] = target: T1, human NHE2-LF (Homo sapiens, UniProt Q9UBY0); experiment: FLIPR assay of Na+/H+ exchange (BCECF fluorescence recovery) in human NHE2-LF transfected PS120 cells; format: cell-based; details: read-out: IC50 Values Determined By FLIPR, NHE2-LF
T1 construct: expressed in transfected cells
T1 sequence (Q9UBY0 1-812): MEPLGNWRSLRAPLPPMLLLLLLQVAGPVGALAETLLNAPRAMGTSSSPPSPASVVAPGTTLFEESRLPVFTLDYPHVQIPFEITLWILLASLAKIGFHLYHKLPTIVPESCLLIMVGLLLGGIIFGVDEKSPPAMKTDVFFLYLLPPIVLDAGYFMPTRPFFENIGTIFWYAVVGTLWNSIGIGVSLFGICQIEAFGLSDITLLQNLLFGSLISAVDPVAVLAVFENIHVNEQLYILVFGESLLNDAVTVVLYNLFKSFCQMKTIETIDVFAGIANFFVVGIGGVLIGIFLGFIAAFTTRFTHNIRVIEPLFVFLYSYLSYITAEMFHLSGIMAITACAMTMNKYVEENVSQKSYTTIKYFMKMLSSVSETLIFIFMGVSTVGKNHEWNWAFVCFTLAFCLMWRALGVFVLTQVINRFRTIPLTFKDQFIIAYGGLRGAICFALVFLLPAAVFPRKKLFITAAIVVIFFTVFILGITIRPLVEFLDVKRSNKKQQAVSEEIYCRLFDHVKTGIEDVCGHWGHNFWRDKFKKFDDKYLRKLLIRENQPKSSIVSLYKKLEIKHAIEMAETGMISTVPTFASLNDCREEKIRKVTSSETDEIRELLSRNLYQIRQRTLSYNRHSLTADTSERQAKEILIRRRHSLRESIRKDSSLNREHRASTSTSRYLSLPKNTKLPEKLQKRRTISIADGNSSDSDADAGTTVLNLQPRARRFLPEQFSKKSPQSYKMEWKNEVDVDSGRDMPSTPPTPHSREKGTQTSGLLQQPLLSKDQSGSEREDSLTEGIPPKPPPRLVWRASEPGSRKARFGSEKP
Experimental: (§1) Human NHE2-LF and human NHE2-SF transfected PS120 cells were grown to confluence in collagen coated Fluorescent Laser Imaging Plate Reader (FLIPR) plates. To remove growth medium, the cells were washed with a 10 mM Hepes buffer, pH 7.4. A pH sensitive fluorescent dye, BCECF, AM (5 μM) (Molecular Probes, Eugene, Oreg.), was added to each well and the plates were incubated in a 37° C. humidified 5% CO2 incubator for approximately 20 minutes.
(§2) The cells were then washed with 30 mM NH4Cl buffer, pH 7.5, to remove excess dye. Plates were incubated with this buffer for approximately 45 minutes in a 37° C. humidified incubator.
5-(N,N-Hexamethylene)-amiloride ((hexa)-amiloride), amiloride, or a vehicle, was then added to each well and allowed to incubate for a minimum of 5 minutes prior to the initiation of intracellular acidification. The NH4Cl buffer was removed and the plates were placed on the FLIPR to establish a baseline fluorescence. […] (This process initiates intracellular acidification and the quenching of BCECF-related fluorescence. The resultant activation of the Na^+/H^+ exchanger and the decrease in intracellular H^+ ions produces in gradual increase in dye fluorescence towards baseline.) Changes in fluorescence were measured by the FLIPR over a period of 7 min. […]

[2] = target: T2, human NHE2-SF (Homo sapiens, UniProt Q9UBY0); experiment: FLIPR assay of Na+/H+ exchange (BCECF fluorescence recovery) in human NHE2-SF transfected PS120 cells; format: cell-based
T2 construct: NotI/BgIII fragments including each of the entire coding regions were subcloned into pcDNA3.1(−) vectors; expressed in transfected cells; two lines tested
T2 sequence (Q9UBY0 116-812): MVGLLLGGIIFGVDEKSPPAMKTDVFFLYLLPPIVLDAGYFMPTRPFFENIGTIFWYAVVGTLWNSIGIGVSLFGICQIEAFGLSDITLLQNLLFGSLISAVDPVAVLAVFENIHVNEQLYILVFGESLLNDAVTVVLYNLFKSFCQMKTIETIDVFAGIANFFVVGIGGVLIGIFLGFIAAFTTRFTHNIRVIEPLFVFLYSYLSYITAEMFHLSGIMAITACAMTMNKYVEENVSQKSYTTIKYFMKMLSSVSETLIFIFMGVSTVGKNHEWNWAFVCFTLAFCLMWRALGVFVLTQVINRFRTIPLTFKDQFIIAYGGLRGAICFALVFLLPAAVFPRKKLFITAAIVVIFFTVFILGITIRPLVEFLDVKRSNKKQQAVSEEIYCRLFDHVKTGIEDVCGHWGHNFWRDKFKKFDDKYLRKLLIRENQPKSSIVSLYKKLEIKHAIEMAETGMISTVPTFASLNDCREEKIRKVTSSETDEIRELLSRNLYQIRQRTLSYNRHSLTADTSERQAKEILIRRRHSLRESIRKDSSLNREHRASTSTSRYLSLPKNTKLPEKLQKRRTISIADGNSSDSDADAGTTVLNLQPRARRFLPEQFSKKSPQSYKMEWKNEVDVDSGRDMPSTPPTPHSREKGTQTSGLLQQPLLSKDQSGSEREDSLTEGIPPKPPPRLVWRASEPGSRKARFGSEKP
Experimental: as §1, §2
5-(N,N-Hexamethylene)-amiloride ((hexa)-amiloride), amiloride, or a vehicle, was then added to each well and allowed to incubate for a minimum of 5 minutes prior to the initiation of intracellular acidification. The NH4Cl buffer was removed and the plates were placed on the FLIPR to establish a baseline fluorescence. A 10 mM hepes buffer, pH 7.4, containing the appropriate concentration of test compound or vehicle was added to each well of the plate. (This process initiates intracellular acidification and the quenching of BCECF-related fluorescence. The resultant activation of the Na^+/H^+ exchanger and the decrease in intracellular H^+ ions produces in gradual increase in dye fluorescence towards baseline.) Changes in fluorescence were measured by the FLIPR over a period of 7 min. Activity of the exchanger was calculated based on the percentage of fluorescence recovery as compared to control in the presence of varying concentrations of compounds (Table 2).

[3] = line #2, read-out: IC50 Values Determined By FLIPR, NHE2-SF line #2
[4] = line #, read-out: IC50 Values Determined By FLIPR, NHE2-SF line #

SMILES	IC50 [1]	IC50 [2, 3]	IC50 [2, 4]
NC(N)=NC(=O)c1nc(Cl)c(N2CCCCCC2)nc1N [(hexa)-Amiloride, 5-(N,N-Hexamethylene)-amiloride]	7.48 µM	0.045 µM	0.023 µM
N=C(N)NC(=O)c1nc(Cl)c(N)nc1N [Amiloride, amiloride]	27 µM	1.37 µM	1.7 µM

From US20030096958A1, “Human NHE2” (Pfizer Inc., priority 2001, published 2003)
